Assay results taken from patent US7662832B2, “Pyrrolo[2,3-c]pyridine derivatives and processes for the preparation thereof” (priority 2004, dated 2010).
Where a name gives a salt, the structure may show the parent alone.

molecular target: Proton Pump (H^+/K^+-ATPase) (Sus scrofa, UniProt P19156); assay: Inhibitory effects on proton pump (H^+/K^+-ATPase) activity; format: biochemical; conditions: hog gastric vesicles; K^+ stimulated H^+/K^+-ATPase activity; 30 minutes at 37° C.
Sequence (P19156 2-1034 limits assumed): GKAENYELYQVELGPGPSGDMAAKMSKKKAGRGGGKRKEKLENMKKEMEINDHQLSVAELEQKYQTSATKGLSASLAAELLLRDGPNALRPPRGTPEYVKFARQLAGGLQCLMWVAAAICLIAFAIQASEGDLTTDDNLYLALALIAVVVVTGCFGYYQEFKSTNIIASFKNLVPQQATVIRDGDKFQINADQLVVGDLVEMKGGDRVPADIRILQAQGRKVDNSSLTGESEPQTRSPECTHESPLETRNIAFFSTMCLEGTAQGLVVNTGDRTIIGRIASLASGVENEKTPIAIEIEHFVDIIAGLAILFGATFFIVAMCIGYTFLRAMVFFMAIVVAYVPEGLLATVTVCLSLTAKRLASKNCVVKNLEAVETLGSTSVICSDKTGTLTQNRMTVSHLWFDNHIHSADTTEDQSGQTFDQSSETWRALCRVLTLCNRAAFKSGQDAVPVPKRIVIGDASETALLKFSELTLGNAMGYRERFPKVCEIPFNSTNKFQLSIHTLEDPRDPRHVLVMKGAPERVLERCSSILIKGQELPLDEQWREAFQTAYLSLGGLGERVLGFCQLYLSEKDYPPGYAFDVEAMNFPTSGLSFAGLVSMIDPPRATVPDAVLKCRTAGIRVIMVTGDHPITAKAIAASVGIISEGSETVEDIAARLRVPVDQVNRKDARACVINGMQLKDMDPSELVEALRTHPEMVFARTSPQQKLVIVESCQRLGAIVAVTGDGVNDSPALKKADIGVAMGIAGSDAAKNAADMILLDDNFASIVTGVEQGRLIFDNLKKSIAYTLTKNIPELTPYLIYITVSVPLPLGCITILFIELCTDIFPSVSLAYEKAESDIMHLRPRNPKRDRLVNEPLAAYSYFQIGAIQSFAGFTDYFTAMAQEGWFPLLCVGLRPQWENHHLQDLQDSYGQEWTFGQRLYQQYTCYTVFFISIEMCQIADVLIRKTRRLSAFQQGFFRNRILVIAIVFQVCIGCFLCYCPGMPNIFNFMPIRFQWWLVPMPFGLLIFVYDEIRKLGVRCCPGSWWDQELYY
Sequence (P18434 whole entry partner): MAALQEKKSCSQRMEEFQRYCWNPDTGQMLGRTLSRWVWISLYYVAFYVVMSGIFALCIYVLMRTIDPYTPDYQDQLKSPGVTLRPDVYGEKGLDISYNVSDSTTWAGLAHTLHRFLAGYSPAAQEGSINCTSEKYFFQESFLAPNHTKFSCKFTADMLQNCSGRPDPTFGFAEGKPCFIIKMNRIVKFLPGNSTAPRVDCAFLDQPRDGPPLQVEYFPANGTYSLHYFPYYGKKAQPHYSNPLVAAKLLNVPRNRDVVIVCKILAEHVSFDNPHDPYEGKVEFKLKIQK

IC50 [nM] | Compound
150 | C#CCn1c(C)c(C)c2ccnc(-c3ccc(OC)cc3)c21 [Example 354, 7-(4-methoxyphenyl)-2,3-dimethyl-1-(prop-2-ynyl)-1H-pyrrolo[2,3-c]pyridine hydrochloride]
306 | C=CCn1c(C)c(C)c2ccnc(-c3ccc(F)cc3)c21 [Example 326, 1-allyl-7-(4-fluorophenyl)-2,3-dimethyl-1H-pyrrolo[2,3-c]pyridine hydrochloride]
320 | Cc1c(C)n(CC2CC2)c2c(N3CCc4ccccc4C3)nccc12 [Example 497, 1-cyclopropylmethyl-7-(1,2,3,4-tetrahydroisoquinolin-2-yl)-2,3-dimethyl-1H-pyrrolo[2,3-c]pyridine hydrochloride]
481 | Cc1c(C)n(Cc2cccc(F)c2)c2c(N3CCc4ccccc4C3)nc(C#N)cc12 [Example 695, 7-(3,4-dihydro-1H-isoquinolin-2-yl)-1-(3-fluorobenzyl)-2,3-dimethyl-1H-pyrrolo[2,3-c]pyridin-5-carbonitrile]
490 | COc1ccc(-c2nccc3c(C)c(C)n(Cc4ccccc4F)c23)cc1 [Example 353, 1-(2-fluorobenzyl)-7-(4-methoxyphenyl)-2,3-dimethyl-1H-pyrrolo[2,3-c]pyridine hydrochloride]
405 | CC(C)=CCn1c(C)c(C)c2ccnc(CN(C)c3ccc(F)cc3)c21 [Example 119, N-[2,3-dimethyl-1-(3-methylbut-2-enyl)-1H-pyrrolo[2,3-c]pyridin-7-ylmethyl]-N-(4-fluorophenyl)-methylamine hydrochloride]
436 | CCn1c(C)c(C)c2cc(C(=O)N3CCN(c4ccccc4)CC3)nc(N3CCc4ccccc4C3)c21 [Example 810, [7-(3,4-dihydro-1H-isoquinolin-2-yl)-1-ethyl-2,3-dimethyl-1H-pyrrolo[2,3-c]pyridin-5-yl]-(4-phenylpiperazin-1-yl)-methanone hydrochloride]
292 | Cc1ccc(-c2nccc3c(C)c(C)n(Cc4ccccc4)c23)cc1 [Example 281, 1-benzyl-2,3-dimethyl-7-(p-tolyl)-1H-pyrrolo[2,3-c]pyridine hydrochloride]
384 | Cc1c(C)n(Cc2ccccc2)c2c(-c3ccc(Cl)cc3)nccc12 [Example 301, 1-benzyl-7-(4-chlorophenyl)-2,3-dimethyl-1H-pyrrolo[2,3-c]pyridine hydrochloride]
65 | Cc1[nH]c2c(N3CCc4cc(F)ccc4C3C)nccc2c1C (stereo not shown) [Example 561, 6-fluoro-2-(2,3-dimethyl-1H-pyrrolo[2,3-c]pyridin-7-yl)-1-methyl-1,2,3,4-tetrahydroisoquinoline hydrochloride]
300 | CC(C)=CCn1c(C)c(C)c2ccnc(N3CCc4ccccc4C3)c21 [Example 475, 1-(3-methylbut-2-enyl)-7-(1,2,3,4-tetrahydroisoquinolin-2-yl)-2,3-dimethyl-1H-pyrrolo[2,3-c]pyridine hydrochloride]
1.5 | C#CCn1c(C)c(C)c2cc(C(N)=O)nc(N3CCc4ccccc4C3)c21 [Example 749, 7-(3,4-dihydro-1H-isoquinolin-2-yl)-2,3-dimethyl-1-(prop-2-ynyl)-1H-pyrrolo[2,3-c]pyridin-5-carboxamide]
430 | Cc1ccc(Cn2c(C)c(C)c3ccnc(COc4ccc(C)cc4)c32)cc1 [Example 17, 2,3-dimethyl-1-(4-methylbenzyl)-7-(p-tolyloxymethyl)-1H-pyrrolo[2,3-c]pyridine hydrochloride]
70 | Cc1c(C)n(CC2CC2)c2c(-c3ccc4ccccc4c3)nccc12 [Example 403, 1-cyclopropylmethyl-2,3-dimethyl-7-(naphthalen-2-yl)-1H-pyrrolo[2,3-c]pyridine hydrochloride]
380 | C=CCCn1c(C)c(C)c2ccnc(N(C)Cc3ccc(F)cc3)c21 [Example 157, 1-(but-3-enyl)-7-[N-(4-fluorobenzyl)-N-methyl]amino-2,3-dimethyl-1H-pyrrolo[2,3-c]pyridine hydrochloride]
320 | C=CCCn1c(C)c(C)c2ccnc(N3CCc4ccccc4C3)c21 [Example 508, 1-(but-3-enyl)-7-(1,2,3,4-tetrahydroisoquinolin-2-yl)-2,3-dimethyl-1H-pyrrolo[2,3-c]pyridine hydrochloride]
36 | CCn1c(C)c(C)c2cc(C(=O)N3CCC(CCO)CC3)nc(N3CCc4ccccc4C3)c21 [Example 804, [7-(3,4-dihydro-1H-isoquinolin-2-yl)-1-ethyl-2,3-dimethyl-1H-pyrrolo[2,3-c]pyridin-5-yl]-[4-(2-hydroxyethyl)-piperidin-1-yl]-methanone hydrochloride]
53 | Cc1c(C)n(Cc2ccccc2)c2c(N3CCc4ccccc4C3)nc(CO)cc12 [Example 850, [1-benzyl-7-(3,4-dihydro-1H-isoquinolin-2-yl)-2,3-dimethyl-1H-pyrrolo[2,3-c]pyridin-5-yl]-methanol hydrochloride]

IC50 [nM] | Compound
54 | Cc1c(C)n(Cc2cccc(Cl)c2)c2c(N3CCc4ccccc4C3)nc(C(=O)O)cc12 [Example 735, 1-(3-chlorobenzyl)-7-(3,4-dihydro-1H-isoquinolin-2-yl)-2,3-dimethyl-1H-pyrrolo[2,3-c]pyridin-5-carboxylic acid]
140 | C=CCn1c(C)c(C)c2ccnc(N3CCc4ccccc4C3CC)c21 (stereo not shown) [Example 577, 2-(1-allyl-2,3-dimethyl-1H-pyrrolo[2,3-c]pyridin-7-yl)-1-ethyl-1,2,3,4-tetrahydroisoquinoline hydrochloride]
74 | Cc1c(C)n(CCC(C)Cl)c2c(N3CCc4ccccc4C3)nccc12 (stereo not shown) [Example 513, 1-(3-chlorobutyl)-7-(1,2,3,4-tetrahydroisoquinolin-2-yl)-2,3-dimethyl-1H-pyrrolo[2,3-c]pyridine hydrochloride]
142 | Cc1c(C)n(Cc2ccccc2F)c2c(CN(C)c3ccc(F)cc3)nccc12 [Example 115, N-[1-(2-fluorobenzyl)-2,3-dimethyl-1H-pyrrolo[2,3-c]pyridin-7-ylmethyl]-N-(4-fluorophenyl)-methylamine hydrochloride]
31 | Cc1cccc(Cn2c(C)c(C)c3cc(C(=O)N4CCNCC4)nc(N4CCc5ccccc5C4)c32)c1 [Example 814, [7-(3,4-dihydro-1H-isoquinolin-2-yl)-2,3-dimethyl-1-(3-methylbenzyl)-1H-pyrrolo[2,3-c]pyridin-5-yl]-(piperazin-1-yl)-methanone hydrochloride]
24 | CCCn1c(C)c(C)c2cc(C(=O)N3CCN(C)CC3)nc(N3CCc4ccccc4C3)c21 [Example 825, [7-(3,4-dihydro-1H-isoquinolin-2-yl)-2,3-dimethyl-1-propyl-1H-pyrrolo[2,3-c]pyridin-5-yl]-(4-methylpiperazin-1-yl)-methanone hydrochloride]
95 | CCn1c(C)c(C)c2ccnc(-c3ccc4ccccc4c3)c21 [Example 404, 1-ethyl-2,3-dimethyl-7-(naphthalen-2-yl)-1H-pyrrolo[2,3-c]pyridine hydrochloride]
1.6 | C=CCn1c(C)c(C)c2cc(C(=O)N3CCOCC3)nc(N3CCc4ccccc4C3)c21 [Example 777, [1-allyl-7-(3,4-dihydro-1H-isoquinolin-2-yl)-2,3-dimethyl-1H-pyrrolo[2,3-c]pyridin-5-yl]-(morpholin-4-yl)-methanone hydrochloride]
113 | CCCn1c(C)c(C)c2ccnc(-c3ccc4ccccc4c3)c21 [Example 407, 2,3-dimethyl-7-(naphthalen-2-yl)-1-propyl-1H-pyrrolo[2,3-c]pyridine hydrochloride]
460 | Cc1c(C)n(CC(C)C)c2c(CCc3ccccc3)nccc12 [Example 447, 1-isobutyl-2,3-dimethyl-7-phenethyl-1H-pyrrolo[2,3-c]pyridine hydrochloride]
290 | CCC1c2ccccc2CCN1c1nccc2c(C)c(C)n(CC=C(C)C)c12 (stereo not shown) [Example 578, 2-[2,3-dimethyl-1-(3-methylbut-2-enyl)-1H-pyrrolo[2,3-c]pyridin-7-yl]-1-ethyl-1,2,3,4-tetrahydroisoquinoline hydrochloride]
220 | CSc1ccc(-c2nccc3c(C)c(C)n(Cc4cccc(F)c4)c23)cc1 [Example 272, 2,3-dimethyl-1-(3-fluorobenzyl)-7-(4-methylsulfanylphenyl)-1H-pyrrolo[2,3-c]pyridine hydrochloride]
170 | Cc1ccc(Cn2c(C)c(C)c3ccnc(N(C)Cc4ccc(F)cc4)c32)cc1 [Example 152, 7-[N-(4-fluorobenzyl)-N-methyl]amino-2,3-dimethyl-1-(4-methylbenzyl)-1H-pyrrolo[2,3-c]pyridine hydrochloride]
360 | CSc1ccc(-c2nccc3c(C)c(C)n(Cc4ccccc4F)c23)cc1 [Example 275, 2,3-dimethyl-1-(2-fluorobenzyl)-7-(4-methylsulfanylphenyl)-1H-pyrrolo[2,3-c]pyridine hydrochloride]
250 | COCCn1c(C)c(C)c2ccnc(N3CCc4ccc(F)cc4C3C)c21 (stereo not shown) [Example 546, 7-fluoro-2-[1-(2-methoxyethyl)-2,3-dimethyl-1H-pyrrolo[2,3-c]pyridin-7-yl]-1-methyl-1,2,3,4-tetrahydroisoquinoline hydrochloride]
410 | C=CCn1c(C)c(C)c2ccnc(COc3ccc(F)cc3)c21 [Example 2, 1-allyl-7-(4-fluorophenoxymethyl)-2,3-dimethyl-1H-pyrrolo[2,3-c]pyridine hydrochloride]
90 | C=Cc1ccc(-c2nccc3c(C)c(C)n(Cc4ccc(C)cc4)c23)cc1 [Example 244, 2,3-dimethyl-1-(4-methylbenzyl)-7-(4-vinylphenyl)-1H-pyrrolo[2,3-c]pyridine hydrochloride]
200 | Cc1c(C)n(Cc2ccccc2F)c2c(N(C)Cc3ccc(F)cc3)nccc12 [Example 147, 1-(2-fluorobenzyl)-7-[N-(4-fluorobenzyl)-N-methyl]amino-2,3-dimethyl-1H-pyrrolo[2,3-c]-pyridine hydrochloride]

Compound | IC50 [nM]
[1-allyl-7-(3,4-dihydro-1H-isoquinolin-2-yl)-2,3-dimethyl-1H-pyrrolo[2,3-c]pyridin-5-yl]-methylamine hydrochloride [Example 887] | 9
